Source: ChEMBL document CHEMBL3745672, “Novel compounds reducing IRS-1 serine phosphorylation for treatment of diabetes” (Bioorg Med Chem Lett, 2016)

How the values were obtained:
[1] = molecular target: T1, Serine/threonine-protein kinase Chk1 (Homo sapiens) (UniProt O14757); assay: Inhibition of CHK1 (unknown origin) at 10 uM
T1 sequence (whole entry): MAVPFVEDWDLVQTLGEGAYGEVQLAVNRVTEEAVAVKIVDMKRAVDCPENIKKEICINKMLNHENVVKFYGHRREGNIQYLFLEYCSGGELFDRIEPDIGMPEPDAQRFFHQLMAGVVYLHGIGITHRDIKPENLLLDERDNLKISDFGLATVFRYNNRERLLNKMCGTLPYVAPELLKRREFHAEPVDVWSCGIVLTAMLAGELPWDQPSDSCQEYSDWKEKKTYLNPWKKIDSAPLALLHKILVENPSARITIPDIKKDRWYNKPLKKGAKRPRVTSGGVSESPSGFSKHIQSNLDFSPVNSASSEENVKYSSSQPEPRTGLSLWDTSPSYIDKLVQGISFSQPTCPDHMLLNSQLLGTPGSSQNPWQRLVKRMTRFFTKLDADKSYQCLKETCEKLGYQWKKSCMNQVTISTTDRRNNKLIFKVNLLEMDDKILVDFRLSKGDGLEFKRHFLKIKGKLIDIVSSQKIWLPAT

[2] = molecular target: T2, Inhibitor of nuclear factor kappa-B kinase subunit beta (Homo sapiens) (UniProt O14920); assay: Inhibition of IKKbeta (unknown origin) at 10 uM
T2 sequence (whole entry): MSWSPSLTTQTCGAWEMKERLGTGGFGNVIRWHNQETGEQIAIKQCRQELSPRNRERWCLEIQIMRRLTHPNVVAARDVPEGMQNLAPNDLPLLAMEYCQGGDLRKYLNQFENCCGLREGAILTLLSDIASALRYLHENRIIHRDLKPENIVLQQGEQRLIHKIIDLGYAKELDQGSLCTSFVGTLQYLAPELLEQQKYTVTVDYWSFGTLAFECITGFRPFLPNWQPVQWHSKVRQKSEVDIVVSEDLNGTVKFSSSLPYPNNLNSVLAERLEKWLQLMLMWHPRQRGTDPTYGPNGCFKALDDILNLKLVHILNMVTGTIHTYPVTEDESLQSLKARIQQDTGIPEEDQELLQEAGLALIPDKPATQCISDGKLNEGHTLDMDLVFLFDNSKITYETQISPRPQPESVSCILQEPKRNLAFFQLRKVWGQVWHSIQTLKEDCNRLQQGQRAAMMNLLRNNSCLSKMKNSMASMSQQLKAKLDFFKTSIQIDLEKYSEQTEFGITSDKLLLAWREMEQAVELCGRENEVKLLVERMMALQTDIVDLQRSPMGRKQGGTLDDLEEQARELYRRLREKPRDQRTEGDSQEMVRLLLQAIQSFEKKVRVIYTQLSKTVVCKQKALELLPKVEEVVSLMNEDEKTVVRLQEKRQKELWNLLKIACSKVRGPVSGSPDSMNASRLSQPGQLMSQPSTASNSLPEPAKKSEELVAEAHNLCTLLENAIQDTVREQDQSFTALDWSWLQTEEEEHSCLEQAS

[3] = molecular target: T3, Tyrosine-protein kinase JAK3 (Homo sapiens) (UniProt P52333); assay: Inhibition of JAK3 (unknown origin) at 10 uM
T3 sequence (whole entry): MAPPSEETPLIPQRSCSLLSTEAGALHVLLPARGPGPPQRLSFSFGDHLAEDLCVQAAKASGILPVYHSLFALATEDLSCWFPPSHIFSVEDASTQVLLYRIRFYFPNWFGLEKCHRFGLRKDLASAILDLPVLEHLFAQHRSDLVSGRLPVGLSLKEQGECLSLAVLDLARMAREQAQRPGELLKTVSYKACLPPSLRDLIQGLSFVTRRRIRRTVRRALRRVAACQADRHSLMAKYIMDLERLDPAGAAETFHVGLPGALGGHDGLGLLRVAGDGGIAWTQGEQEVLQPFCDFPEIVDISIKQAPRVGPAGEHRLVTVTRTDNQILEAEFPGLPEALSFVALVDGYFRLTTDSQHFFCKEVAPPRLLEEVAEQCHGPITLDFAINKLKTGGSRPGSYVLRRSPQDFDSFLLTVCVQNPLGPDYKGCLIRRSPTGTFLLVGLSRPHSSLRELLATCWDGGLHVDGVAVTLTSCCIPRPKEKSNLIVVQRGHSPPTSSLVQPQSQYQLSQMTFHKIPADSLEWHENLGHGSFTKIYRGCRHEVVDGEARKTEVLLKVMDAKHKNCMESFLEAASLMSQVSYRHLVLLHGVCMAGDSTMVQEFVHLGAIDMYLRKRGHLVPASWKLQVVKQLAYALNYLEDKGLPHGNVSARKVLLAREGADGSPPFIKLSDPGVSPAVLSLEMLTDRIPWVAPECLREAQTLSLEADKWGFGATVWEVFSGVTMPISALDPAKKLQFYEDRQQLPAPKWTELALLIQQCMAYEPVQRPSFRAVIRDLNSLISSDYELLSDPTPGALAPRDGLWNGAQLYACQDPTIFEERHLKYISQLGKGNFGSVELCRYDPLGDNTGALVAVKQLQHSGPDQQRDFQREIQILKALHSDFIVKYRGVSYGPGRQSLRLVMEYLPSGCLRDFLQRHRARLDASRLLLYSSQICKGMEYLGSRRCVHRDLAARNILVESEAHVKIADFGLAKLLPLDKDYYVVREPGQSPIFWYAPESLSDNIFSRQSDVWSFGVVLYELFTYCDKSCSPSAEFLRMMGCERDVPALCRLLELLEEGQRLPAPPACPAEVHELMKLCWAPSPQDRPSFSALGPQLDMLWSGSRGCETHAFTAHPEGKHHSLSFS

[4] = molecular target: T4, Mitogen-activated protein kinase 8 (Homo sapiens, UniProt P45983); assay: Inhibition of JNK1 (unknown origin) at 10 uM
T4 sequence (P45983 whole entry): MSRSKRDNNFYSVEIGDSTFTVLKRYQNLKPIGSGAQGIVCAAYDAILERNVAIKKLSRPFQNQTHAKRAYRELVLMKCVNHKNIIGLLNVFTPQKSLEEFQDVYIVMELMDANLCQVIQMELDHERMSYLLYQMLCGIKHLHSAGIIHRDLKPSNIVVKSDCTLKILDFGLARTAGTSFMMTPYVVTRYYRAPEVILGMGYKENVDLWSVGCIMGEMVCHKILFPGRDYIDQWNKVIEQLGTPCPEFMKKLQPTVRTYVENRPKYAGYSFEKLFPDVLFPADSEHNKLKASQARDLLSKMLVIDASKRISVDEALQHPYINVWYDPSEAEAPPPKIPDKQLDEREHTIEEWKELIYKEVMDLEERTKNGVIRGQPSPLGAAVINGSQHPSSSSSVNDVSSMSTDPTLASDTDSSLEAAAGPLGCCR

[5] = molecular target: Serine/threonine-protein kinase mTOR (Homo sapiens) (UniProt P42345); assay: Inhibition of mTOR (unknown origin) at 10 uM
[6] = molecular target: Serine/threonine-protein kinase PAK 4 (Homo sapiens) (UniProt O96013); assay: Inhibition of PAK4 (unknown origin) at 10 uM
Chain of Serine/threonine-protein kinase PAK 4 (Homo sapiens) (O96013 whole entry, looked up): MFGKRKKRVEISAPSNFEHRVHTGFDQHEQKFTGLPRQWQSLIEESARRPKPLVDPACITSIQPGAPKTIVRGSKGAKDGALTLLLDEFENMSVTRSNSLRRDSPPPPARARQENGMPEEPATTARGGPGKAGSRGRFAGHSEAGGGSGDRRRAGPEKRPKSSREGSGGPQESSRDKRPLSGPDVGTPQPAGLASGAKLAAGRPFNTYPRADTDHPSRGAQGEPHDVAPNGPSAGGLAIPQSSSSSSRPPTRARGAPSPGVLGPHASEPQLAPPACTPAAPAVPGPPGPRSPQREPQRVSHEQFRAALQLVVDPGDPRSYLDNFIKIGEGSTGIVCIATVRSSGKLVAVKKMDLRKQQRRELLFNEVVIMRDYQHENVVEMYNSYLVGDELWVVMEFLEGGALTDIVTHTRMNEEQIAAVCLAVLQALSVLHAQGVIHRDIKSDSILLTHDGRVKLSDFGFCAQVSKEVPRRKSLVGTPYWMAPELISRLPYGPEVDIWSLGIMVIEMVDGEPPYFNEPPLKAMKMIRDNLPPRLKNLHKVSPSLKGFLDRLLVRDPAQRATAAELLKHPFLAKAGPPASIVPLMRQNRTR

[7] = molecular target: Protein kinase C alpha type (Homo sapiens) (UniProt P17252); assay: Inhibition of PKCalpha (unknown origin) at 10 uM
[8] = molecular target: Serine/threonine-protein kinase PLK3 (Homo sapiens) (UniProt Q9H4B4); assay: Inhibition of PLK3 (unknown origin) at 10 uM
Chain of Serine/threonine-protein kinase PLK3 (Homo sapiens) (Q9H4B4 whole entry, looked up): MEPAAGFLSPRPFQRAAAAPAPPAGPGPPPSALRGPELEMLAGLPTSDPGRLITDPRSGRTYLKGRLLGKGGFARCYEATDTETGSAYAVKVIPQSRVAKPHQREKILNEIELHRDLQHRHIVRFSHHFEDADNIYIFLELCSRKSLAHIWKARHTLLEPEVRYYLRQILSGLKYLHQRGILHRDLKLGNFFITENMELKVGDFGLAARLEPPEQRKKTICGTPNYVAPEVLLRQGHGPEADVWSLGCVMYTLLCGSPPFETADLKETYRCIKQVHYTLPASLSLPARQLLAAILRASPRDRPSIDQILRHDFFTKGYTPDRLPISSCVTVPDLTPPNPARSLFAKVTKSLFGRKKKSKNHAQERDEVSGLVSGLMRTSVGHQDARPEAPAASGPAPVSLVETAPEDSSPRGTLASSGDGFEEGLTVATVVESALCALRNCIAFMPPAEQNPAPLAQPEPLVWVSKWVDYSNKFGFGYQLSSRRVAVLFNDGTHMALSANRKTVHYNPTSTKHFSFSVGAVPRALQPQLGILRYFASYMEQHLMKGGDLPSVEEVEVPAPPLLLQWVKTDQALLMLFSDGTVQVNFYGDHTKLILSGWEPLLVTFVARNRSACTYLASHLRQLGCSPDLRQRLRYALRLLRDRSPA

[9] = molecular target: Proto-oncogene tyrosine-protein kinase receptor Ret (Homo sapiens) (UniProt P07949); assay: Inhibition of RET (unknown origin) at 10 uM
Chain of Proto-oncogene tyrosine-protein kinase receptor Ret (Homo sapiens) (P07949 whole entry): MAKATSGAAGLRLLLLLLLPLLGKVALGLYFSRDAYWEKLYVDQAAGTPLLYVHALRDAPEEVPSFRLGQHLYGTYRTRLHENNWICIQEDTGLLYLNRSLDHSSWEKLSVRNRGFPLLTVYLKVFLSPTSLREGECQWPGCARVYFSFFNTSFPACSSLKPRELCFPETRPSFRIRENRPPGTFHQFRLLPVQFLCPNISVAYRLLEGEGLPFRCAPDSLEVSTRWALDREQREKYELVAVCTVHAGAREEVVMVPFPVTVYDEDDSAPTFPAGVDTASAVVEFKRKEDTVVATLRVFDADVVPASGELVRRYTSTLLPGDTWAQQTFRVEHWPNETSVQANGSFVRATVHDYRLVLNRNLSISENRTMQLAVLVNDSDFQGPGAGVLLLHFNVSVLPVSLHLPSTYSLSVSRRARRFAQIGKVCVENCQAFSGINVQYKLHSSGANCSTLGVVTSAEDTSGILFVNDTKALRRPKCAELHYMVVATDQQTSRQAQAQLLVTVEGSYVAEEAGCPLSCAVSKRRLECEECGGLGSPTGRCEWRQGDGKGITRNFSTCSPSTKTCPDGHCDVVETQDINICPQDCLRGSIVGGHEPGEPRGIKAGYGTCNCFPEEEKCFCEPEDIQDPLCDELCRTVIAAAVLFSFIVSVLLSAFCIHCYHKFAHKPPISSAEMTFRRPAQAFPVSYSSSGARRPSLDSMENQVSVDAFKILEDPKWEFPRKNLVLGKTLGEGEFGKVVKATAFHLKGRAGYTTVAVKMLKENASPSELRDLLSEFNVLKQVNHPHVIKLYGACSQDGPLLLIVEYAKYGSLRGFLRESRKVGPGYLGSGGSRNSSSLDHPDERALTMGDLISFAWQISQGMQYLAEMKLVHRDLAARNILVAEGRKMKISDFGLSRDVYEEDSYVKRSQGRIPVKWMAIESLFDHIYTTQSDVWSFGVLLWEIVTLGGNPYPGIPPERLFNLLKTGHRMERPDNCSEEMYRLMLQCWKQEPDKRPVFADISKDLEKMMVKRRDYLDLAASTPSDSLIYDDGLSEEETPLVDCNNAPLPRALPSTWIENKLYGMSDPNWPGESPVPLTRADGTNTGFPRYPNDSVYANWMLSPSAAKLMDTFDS

[10] = molecular target: Death-associated protein kinase 3 (Homo sapiens) (UniProt O43293); assay: Inhibition of DAPK3 (unknown origin) at 10 uM
Chain of Death-associated protein kinase 3 (Homo sapiens) (O43293 whole entry, looked up): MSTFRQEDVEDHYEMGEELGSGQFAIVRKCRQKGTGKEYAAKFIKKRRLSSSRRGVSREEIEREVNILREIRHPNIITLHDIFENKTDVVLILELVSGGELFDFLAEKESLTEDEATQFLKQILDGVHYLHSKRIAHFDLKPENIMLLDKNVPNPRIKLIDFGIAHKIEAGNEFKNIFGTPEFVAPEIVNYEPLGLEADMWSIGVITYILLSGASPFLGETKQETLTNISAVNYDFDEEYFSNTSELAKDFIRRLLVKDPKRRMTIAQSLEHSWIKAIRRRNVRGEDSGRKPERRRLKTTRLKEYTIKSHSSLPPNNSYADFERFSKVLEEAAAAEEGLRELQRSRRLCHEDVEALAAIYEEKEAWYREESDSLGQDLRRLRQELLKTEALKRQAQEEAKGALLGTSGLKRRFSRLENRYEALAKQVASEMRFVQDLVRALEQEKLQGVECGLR

[11] = molecular target: T4, Mitogen-activated protein kinase 8; assay: Inhibition of JNK1 (unknown origin) expressed in HEK293 cells assessed as anisomycin-induced JNK phosphorylation at 10 uM incubated for 30 mins by Western blot analysis relative to anisomycin; type: cell-based; design: scale not given: the % may be the effect or the level left
[12] = molecular target: Tyrosine-protein kinase receptor UFO (Homo sapiens) (UniProt P30530); assay: Inhibition of AXL (unknown origin) at 10 uM
[13] = molecular target: Platelet-derived growth factor receptor beta (Homo sapiens) (UniProt P09619); assay: Inhibition of PDGFRbeta (unknown origin) at 10 uM
Chain of Platelet-derived growth factor receptor beta (Homo sapiens) (P09619 whole entry): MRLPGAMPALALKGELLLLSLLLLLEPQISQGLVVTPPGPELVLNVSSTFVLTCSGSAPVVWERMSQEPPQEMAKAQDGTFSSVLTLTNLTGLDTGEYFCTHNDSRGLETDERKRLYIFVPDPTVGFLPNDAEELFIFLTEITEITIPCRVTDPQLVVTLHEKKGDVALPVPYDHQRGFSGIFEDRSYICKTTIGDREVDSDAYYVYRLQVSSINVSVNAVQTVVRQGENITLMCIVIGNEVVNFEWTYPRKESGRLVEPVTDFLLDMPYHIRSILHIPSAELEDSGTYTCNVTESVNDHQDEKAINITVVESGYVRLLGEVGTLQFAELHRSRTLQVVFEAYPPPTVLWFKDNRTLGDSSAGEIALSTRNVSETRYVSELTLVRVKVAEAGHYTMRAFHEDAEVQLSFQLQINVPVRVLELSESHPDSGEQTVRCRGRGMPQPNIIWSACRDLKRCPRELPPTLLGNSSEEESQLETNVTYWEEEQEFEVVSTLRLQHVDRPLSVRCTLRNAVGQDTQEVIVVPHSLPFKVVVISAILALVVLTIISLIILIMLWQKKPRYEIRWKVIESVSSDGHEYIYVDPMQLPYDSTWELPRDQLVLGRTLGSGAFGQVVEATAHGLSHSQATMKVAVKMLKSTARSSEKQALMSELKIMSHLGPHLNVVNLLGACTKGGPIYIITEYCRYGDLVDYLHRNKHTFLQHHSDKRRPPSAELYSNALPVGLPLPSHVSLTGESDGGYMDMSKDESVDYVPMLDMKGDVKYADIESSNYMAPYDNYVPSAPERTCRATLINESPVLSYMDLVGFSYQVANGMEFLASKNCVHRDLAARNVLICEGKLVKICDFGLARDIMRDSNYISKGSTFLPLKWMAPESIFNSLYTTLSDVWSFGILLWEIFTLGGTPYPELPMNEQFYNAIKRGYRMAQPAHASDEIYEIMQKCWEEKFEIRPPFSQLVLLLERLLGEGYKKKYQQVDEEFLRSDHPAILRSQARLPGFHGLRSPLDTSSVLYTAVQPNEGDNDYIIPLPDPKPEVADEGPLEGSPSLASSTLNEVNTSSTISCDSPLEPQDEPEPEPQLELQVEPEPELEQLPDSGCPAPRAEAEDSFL

| inhibition [1] [%] | inhibition [2] [%] | inhibition [3] [%] | inhibition [4] [%] | inhibition [5] [%] | inhibition [6] [%] | inhibition [7] [%] | inhibition [8] [%] | inhibition [9] [%] | Activity [11] [%] | inhibition [12] [%] | inhibition [13] [%] | SMILES | inhibition [10] [%] |
| --- | --- | --- | --- | --- | --- | --- | --- | --- | --- | --- | --- | --- | --- |
| 4 | 5 | 41 | 64 | 0 | 0 | 12 | 1 | 98 | 133 | 9 | 100 | CN1CCN(c2ccc(Nc3ncc4cc(Oc5ccc(F)cc5F)c(=O)n(C)c4n3)cc2)CC1 | 12 |
| 2 | 0 | 7 | 34 | 7 | 18 | 8 | 0 | 43 | 45 | 0 | 41 | CN1CCN(c2ccc(Nc3ncc4cc(Oc5c(Cl)cccc5Cl)c(=O)n(C)c4n3)cc2)CC1 | 15 |
| -1 | 16 | 55 | 94 | 22 | 36 | 13 | 33 | 100 | 29.6 | 9 | 100 | Cn1c(=O)c(Oc2ccc(F)cc2F)cc2cnc(Nc3ccc(N4CCC(O)CC4)cc3)nc21 | 0 |
| 2 | 13 | 10 | 13 | 33 | 29 | 14 | 29 | 46 | 149 | 6 | 39 | Cn1c(=O)c(Oc2ccc(F)cc2F)cc2cnc(Nc3ccc(N4CCCCC4)cc3)nc21 | 0 |

Continued, molecule first:

| SMILES | inhibition [1] [%] | inhibition [2] [%] | inhibition [3] [%] | inhibition [4] [%] | inhibition [5] [%] | inhibition [6] [%] | inhibition [7] [%] | inhibition [8] [%] | inhibition [9] [%] | Activity [11] [%] | inhibition [12] [%] | inhibition [13] [%] | inhibition [10] [%] |
| --- | --- | --- | --- | --- | --- | --- | --- | --- | --- | --- | --- | --- | --- |
| Cn1c(=O)c(Oc2ccc(F)cc2F)cc2cnc(NCCc3ccccn3)nc21 | 14 | 6 | 0 | 55 | 15 | 22 | 8 | 0 | 11 | 82 | 0 | 6 | 0 |
| Cn1c(=O)c(Oc2ccc(F)cc2F)cc2cnc(NC3CCN(S(C)(=O)=O)CC3)nc21 | 4 | 4 | 0 | 93 | 19 | 5 | 10 | 0 | 0 | 77.2 | 8 | 12 | 2 |
| Cn1c(=O)c(Oc2c(Cl)cccc2Cl)cc2cnc(NC3CCOCC3)nc21 | 8 | 3 | 0 | 67 | 24 | 14 | 5 | 0 | 2 | 55.2 | 0 | 0 | 0 |
| CN(C)CCNc1ncc2cc(Oc3ccc(F)cc3F)c(=O)n(C)c2n1 | 3 | 3 | 0 | 3 | 5 | 20 | 0 | 0 | 1 | 104 | 0 | 5 | 0 |
| Cn1c(=O)c(Oc2ccc(F)cc2F)cc2cnc(NC3CCN(S(N)(=O)=O)CC3)nc21 |  |  |  |  |  |  |  |  |  | 30.5 |  |  |  |
| CN1CCN(CCCNc2ncc3cc(Oc4ccc(F)cc4F)c(=O)n(C)c3n2)CC1 | 8 | 6 | 0 | 20 | 9 | 2 | 13 | 0 | 24 | 153 | 4 | 29 | 12 |
